We go through 9 molecules from patent US20090082329A1 (AVENTIS PHARMA S.A., priority 2006, published 2009).

Each structure is given as a SMILES string. Read-outs that look alike come from different tables or passages of the source.

In assay [1] the test system is MEF-IGF1R cells. Kind of assay: Proliferation/viability of MEF-IGF1R (Thymidine [14C] incorporation). The format is cell-based. The settings on record: rhIGF1 100 ng/mL, incubation 72 hours, read-out: Test C IC50. An outline of the steps:
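Serum-starved (24 h) MEF cells stably expressing human IGF-1R were exposed to compound with rhIGF1 (100 ng/mL) and [14C]thymidine for 72 h at 37 °C. Incorporation counted by scintillation; IC50 from 10 concentrations in duplicate, normalised to IGF1-stimulated (100%) and unstimulated (0%) controls, non-linear regression.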

Assay [2] deals with T1, human cytoplasmic domain of IGF-1R (Homo sapiens, UniProt P08069).
T1 construct: The human cytoplasmic domain of IGF-1R was cloned by fusion with glutathione S-transferase (GST); made in house; host or cells: SF21 insect cells (baculovirus, pFastBac-GST)
Kind of assay: Kinase IGF-1R test: inhibition of autophosphorylation of the enzyme (HTRF). The settings on record: ATP 120 μM. The format is biochemical. In short, it runs like this:
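GST-fused human IGF-1R cytoplasmic domain from Sf21 cells (5 nM) preincubated with 1/3-step compound dilutions for 30 or 90 min in pH 7.5 Hepes/MnCl2 buffer, ≤1% DMSO. Autophosphorylation started with 120 μM ATP, stopped after 5 min; HTRF (anti-GST XL665/Eu-anti-phosphotyrosine) read, IC50 from inhibition vs log concentration.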
On the technique in general: In TR-FRET formats the signal depends on donor and acceptor labels being close together.

Assay [3] addresses T2, IGF-1R in MCF7 cells (Homo sapiens, UniProt P08069). Kind of assay: Autophosphorylation of IGF-1R in MCF7 cells after stimulation with IGF-1 (ELISA). Type of assay: cell-based. Set-up: endogenous in cells; host or cells: MCF-7 cells. The settings on record: MCF-7 cells, compound added one hour before stimulation with IGF1; read-out: Test B IC50. An outline of the steps: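 MCF-7 cells serum-starved 24 h, given compound 1 h before 10 min IGF-1 stimulation, then lysed. Phospho-IGF-1R captured by anti-IGF-1R and detected with peroxidase anti-phosphotyrosine, luminescent read-out; duplicates normalized to stimulated (100%) and unstimulated (0%) controls, IC50 by non-linear regression.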

Assay [4] addresses T2, IGF-1R in MCF7 cells. Described as above. Conditions: MCF-7 cells, compound added one hour before stimulation with IGF1; read-out: Test B IC50. Details: The autophosphorylation of IGF1R in the IGF1-induced cells is evaluated by means of an ELISA technique; endogenous in cells; host or cells: MCF-7 cells. Type of assay: cell-based. As to the method:
B) Measurement of the Autophosphorylation of IGF-1R in MCF7 Cells after Stimulation with IGF-1
Cell Culturing and Execution of the Test:
The autophosphorylation of IGF1R in the IGF1-induced cells is evaluated by means of an ELISA technique (Enzyme Linked ImmunoSorbent Assay). The MCF-7 are seeded at 60 000 cells per well in 6-well plates and incubated at 37° C., 5% CO2 in medium containing 10% serum. After one night in 10% serum, the cells are deprived of serum for 24 hours. The compounds are added to the medium one hour before stimulation with IGF1. After 10 minutes of stimulation with IGF1, the cells are lysed with a buffer (Hepes 50 mM pH 7.6, Triton X100 1%, orthovanadate 2 mM, protease inhibitor cocktail). The cell lysates are incubated on a 96-well plate precoated with an anti-IGF1R antibody, followed by incubation with an anti-phosphotyrosine antibody coupled to the enzyme peroxidase. The level of peroxidase activity (measured by OD with a luminescent substrate) reflects the phosphorylation status of the receptor.
(i) The tests are performed in duplicate and the mean of the two tests is calculated.
(ii) The value of the signal of the maximum response is calculated from the positive control: cells stimulated with IGF1 without compound.
(iii) Value of the signal of the minimum response is calculated from the negative control: cells not stimulated with IGF1 without compound. […]

The mark [5] stands for this setting: preincubation 30 minutes with 5 nM enzyme, read-out: Test A 30′ IC50.
Where [6] appears, read: preincubation 90 minutes with 5 nM enzyme, read-out: Test A 90′ IC50.

T1 sequence (P08069 960-1367 limits assumed): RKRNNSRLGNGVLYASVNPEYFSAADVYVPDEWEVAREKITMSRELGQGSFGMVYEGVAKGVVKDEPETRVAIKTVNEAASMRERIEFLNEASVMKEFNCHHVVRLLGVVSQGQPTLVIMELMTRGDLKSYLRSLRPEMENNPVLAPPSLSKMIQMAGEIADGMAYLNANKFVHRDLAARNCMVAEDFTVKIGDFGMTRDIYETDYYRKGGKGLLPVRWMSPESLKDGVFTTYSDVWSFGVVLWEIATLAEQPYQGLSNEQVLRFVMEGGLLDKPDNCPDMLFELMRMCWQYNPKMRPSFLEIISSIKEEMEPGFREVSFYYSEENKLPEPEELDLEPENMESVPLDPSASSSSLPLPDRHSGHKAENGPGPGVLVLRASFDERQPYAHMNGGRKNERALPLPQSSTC
T2 sequence (P08069 31-1367): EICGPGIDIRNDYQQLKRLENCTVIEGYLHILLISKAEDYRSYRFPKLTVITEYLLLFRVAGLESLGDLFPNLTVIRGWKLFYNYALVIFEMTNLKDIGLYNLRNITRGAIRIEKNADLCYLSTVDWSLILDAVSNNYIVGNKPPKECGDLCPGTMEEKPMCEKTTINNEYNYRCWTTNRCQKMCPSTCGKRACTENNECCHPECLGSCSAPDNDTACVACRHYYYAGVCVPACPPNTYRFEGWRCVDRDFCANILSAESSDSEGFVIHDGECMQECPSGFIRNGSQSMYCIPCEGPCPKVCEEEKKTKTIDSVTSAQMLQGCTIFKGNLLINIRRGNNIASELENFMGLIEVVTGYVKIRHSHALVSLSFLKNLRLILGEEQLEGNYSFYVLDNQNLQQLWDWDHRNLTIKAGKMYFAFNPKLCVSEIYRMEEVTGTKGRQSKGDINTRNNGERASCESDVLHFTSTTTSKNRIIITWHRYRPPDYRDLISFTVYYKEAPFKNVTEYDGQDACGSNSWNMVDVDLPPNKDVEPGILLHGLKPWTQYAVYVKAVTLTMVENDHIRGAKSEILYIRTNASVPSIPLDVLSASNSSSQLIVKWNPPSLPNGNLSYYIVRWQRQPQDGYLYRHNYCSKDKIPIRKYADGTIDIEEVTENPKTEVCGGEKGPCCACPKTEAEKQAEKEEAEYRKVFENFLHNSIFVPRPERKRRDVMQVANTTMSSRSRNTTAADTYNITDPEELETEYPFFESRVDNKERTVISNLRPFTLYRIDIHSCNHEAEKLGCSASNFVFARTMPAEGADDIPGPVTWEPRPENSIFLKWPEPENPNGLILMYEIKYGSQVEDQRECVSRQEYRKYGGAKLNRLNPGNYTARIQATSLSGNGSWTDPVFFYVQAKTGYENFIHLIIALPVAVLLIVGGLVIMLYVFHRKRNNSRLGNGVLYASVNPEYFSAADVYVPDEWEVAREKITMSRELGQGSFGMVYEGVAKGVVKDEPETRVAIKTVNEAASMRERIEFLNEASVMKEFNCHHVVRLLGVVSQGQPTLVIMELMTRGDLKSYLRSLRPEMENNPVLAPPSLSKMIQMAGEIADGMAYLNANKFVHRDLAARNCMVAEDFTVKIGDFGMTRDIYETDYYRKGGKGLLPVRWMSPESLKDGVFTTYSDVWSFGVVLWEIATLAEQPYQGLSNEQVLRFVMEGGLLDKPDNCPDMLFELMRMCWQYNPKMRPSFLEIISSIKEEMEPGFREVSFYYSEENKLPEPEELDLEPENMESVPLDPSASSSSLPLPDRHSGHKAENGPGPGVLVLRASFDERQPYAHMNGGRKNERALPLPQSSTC

`CCCCN(C)C(=O)Nc1cc(CN2C(=O)N(c3ccc(SC(F)(F)F)cc3)C(=O)C2(C)C)ccn1` [Example 36, 1-butyl-3-{4-[(5,5-dimethyl-2,4-dioxo-3-{4-[(trifluoromethyl)thio]phenyl}imidazolidin-1-yl)methyl]pyridin-2-yl}-1-methylurea]: the IC50 in assay [1], in assay [2] (setting [5]), in assay [2] (setting [6]) and in assay [3] was 10 to 100 nM throughout.
For the molecule `CN(C)CCCNC(=O)Nc1cc(CN2C(=O)N(c3ccc(SC(F)(F)F)cc3)C(=O)C2(C)C)ccn1` [Example 39, 1-[3-(dimethylamino)propyl]-3-{4-[(5,5-dimethyl-2,4-dioxo-3-{4-[(trifluoromethyl)thio]phenyl}imidazolidin-1-yl)methyl]pyridin-2-yl}urea], the IC50 in assay [1] was greater than 100 nM; in assay [2] (setting [5]), 10 to 100 nM; in assay [2] (setting [6]) it was 10 to 100 nM; in assay [3], greater than 100 nM.
As for `CC1(C)C(=O)N(c2ccc(SC(F)(F)F)cc2)C(=O)N1Cc1ccnc(NC(N)=O)c1` [Example 40A], the IC50 in assay [4] is less than 10 nM; in assay [1], 10 to 100 nM; in assay [2] (setting [5]) it was 10 to 100 nM; in assay [2] (setting [6]) it was less than 10 nM.
Regarding `CC1(C)C(=O)N(c2ccc(SC(F)(F)F)cc2)C(=O)N1Cc1ccnc(Nc2cccc(F)c2)c1` [Example 40C, 1-({2-[(3-fluorophenyl)amino]pyridin-4-yl}methyl)-5,5-dimethyl-3-{4-[(trifluoromethyl)thio]phenyl}imidazolidine-2,4-dione], the IC50 in assay [1] was 10 to 100 nM; in assay [2] (setting [5]), greater than 100 nM; in assay [2] (setting [6]), 10 to 100 nM; in assay [3] it was 10 to 100 nM.
For the molecule `CC1(C)C(=O)N(c2ccc(SC(F)(F)F)cc2)C(=O)N1Cc1ccnc(NC2CC2)c1` [Example 40D, 1-{[2-(cyclopropylamino)pyridin-4-yl]methyl}-5,5-dimethyl-3-{4-[(trifluoromethyl)thio]phenyl}imidazolidine-2,4-dione], the IC50 in assay [1] is greater than 100 nM; in assay [2] (setting [5]) it was 10 to 100 nM; in assay [2] (setting [6]), 10 to 100 nM; in assay [3], 10 to 100 nM.
With `CC1(C)C(=O)N(c2ccc(SC(F)(F)F)cc2)C(=O)N1Cc1ccnc(Nc2cccnc2Cl)c1` [Example 40E, 1-({2-[(2-chloropyridin-3-yl)amino]pyridin-4-yl}-methyl)-5,5-dimethyl-3-{4-[(trifluoromethyl)thio]phenyl}imidazolidine-2,4-dione], the IC50 in assay [1], in assay [2] (setting [5]), in assay [2] (setting [6]) and in assay [3] was 10 to 100 nM throughout.
For `CC1(C)C(=O)N(c2ccc(SC(F)(F)F)cc2)C(=O)N1Cc1ccnc(Nc2ccc(Cl)nc2)c1` [Example 40F, 1-({2-[(6-chloropyridin-3-yl)amino]pyridin-4-yl}-methyl)-5,5-dimethyl-3-{4-[(trifluoromethyl)thio]phenyl}imidazolidine-2,4-dione], the IC50 was greater than 100 nM in assay [1], greater than 100 nM in assay [2] (setting [5]), 10 to 100 nM in assay [2] (setting [6]) and greater than 100 nM in assay [3].
Regarding `CC1(C)C(=O)N(c2ccc(SC(F)(F)F)cc2)C(=O)N1Cc1ccnc(Nc2ccc(O)nc2)c1` [Example 40G, 1-({2-[(6-hydroxypyridin-3-yl)amino]pyridin-4-yl}-methyl)-5,5-dimethyl-3-{4-[(trifluoromethyl)thio]phenyl}imidazolidine-2,4-dione], the IC50 was greater than 100 nM in assay [1], 10 to 100 nM in assay [2] (setting [5]), 10 to 100 nM in assay [2] (setting [6]) and 10 to 100 nM in assay [3].
`COC(=O)Nc1cc(CN2C(=O)N(c3ccc(SC(F)(F)F)cc3)C(=O)C2(C)C)ccn1` [Example 40L, methyl {4-[(5,5-dimethyl-2,4-dioxo-3-{4-[(tri-fluoromethyl)thio]phenyl}imidazolidin-1-yl)methyl]pyridin-2-yl}carbamate]: the IC50 was greater than 100 nM in assay [1], 10 to 100 nM in assay [2] (setting [5]), less than 10 nM in assay [2] (setting [6]) and 10 to 100 nM in assay [3].

The IC50 is the point on the concentration scale where inhibition reaches its midpoint.
